# Experimental data taken from PMC6199744, “Development of Chemical Proteomics for the Folateome and Analysis of the Kinetoplastid Folateome” (ACS Infectious Diseases, 2018).
# Like-named read-outs stand apart in the source and are kept apart here.
# Key:
# Assay type in all cases: binding
# [1] = target: T1, HeLa cell extract proteins (Homo sapiens, UniProt P30153)
# T1 construct: endogenous in cells; host or cells: HeLa cell extract
# [2] = target: T2, HeLa cell extract proteins (Homo sapiens, UniProt P08238)
# T2 construct: endogenous in cells; host or cells: HeLa cell extract
# [3] = target: T3, HeLa cell extract proteins (Homo sapiens, UniProt Q969U7)
# T3 construct: endogenous in cells; host or cells: HeLa cell extract
# T3 sequence (Q969U7 1-264): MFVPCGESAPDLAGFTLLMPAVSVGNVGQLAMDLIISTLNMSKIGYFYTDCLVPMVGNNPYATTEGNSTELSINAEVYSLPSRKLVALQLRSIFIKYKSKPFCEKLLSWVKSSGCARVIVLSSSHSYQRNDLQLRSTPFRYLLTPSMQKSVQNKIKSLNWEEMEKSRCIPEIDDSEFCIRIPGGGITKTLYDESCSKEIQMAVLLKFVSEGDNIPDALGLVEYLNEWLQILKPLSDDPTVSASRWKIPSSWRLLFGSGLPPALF
# [4] = target: T4, HeLa cell extract proteins (Homo sapiens, UniProt P16083)
# T4 construct: endogenous in cells; host or cells: HeLa cell extract
# T4 sequence (P16083 1-231): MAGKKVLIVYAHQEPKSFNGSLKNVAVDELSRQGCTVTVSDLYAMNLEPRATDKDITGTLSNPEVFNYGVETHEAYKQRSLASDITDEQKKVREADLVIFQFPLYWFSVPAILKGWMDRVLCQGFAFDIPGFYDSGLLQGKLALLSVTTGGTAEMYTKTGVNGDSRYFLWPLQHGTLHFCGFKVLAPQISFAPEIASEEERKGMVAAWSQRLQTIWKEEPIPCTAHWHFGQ
# [5] = target: T5, HeLa cell extract proteins (Homo sapiens, UniProt P31949)
# T5 construct: endogenous in cells; host or cells: HeLa cell extract
# T5 sequence (P31949 1-105): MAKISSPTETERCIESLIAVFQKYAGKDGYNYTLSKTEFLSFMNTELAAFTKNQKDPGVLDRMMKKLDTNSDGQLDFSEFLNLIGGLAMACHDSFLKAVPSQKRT
# [6] = target: T6, HeLa cell extract proteins (Homo sapiens, UniProt P23921)
# T6 construct: endogenous in cells; host or cells: HeLa cell extract
# T6 sequence (P23921 1-792): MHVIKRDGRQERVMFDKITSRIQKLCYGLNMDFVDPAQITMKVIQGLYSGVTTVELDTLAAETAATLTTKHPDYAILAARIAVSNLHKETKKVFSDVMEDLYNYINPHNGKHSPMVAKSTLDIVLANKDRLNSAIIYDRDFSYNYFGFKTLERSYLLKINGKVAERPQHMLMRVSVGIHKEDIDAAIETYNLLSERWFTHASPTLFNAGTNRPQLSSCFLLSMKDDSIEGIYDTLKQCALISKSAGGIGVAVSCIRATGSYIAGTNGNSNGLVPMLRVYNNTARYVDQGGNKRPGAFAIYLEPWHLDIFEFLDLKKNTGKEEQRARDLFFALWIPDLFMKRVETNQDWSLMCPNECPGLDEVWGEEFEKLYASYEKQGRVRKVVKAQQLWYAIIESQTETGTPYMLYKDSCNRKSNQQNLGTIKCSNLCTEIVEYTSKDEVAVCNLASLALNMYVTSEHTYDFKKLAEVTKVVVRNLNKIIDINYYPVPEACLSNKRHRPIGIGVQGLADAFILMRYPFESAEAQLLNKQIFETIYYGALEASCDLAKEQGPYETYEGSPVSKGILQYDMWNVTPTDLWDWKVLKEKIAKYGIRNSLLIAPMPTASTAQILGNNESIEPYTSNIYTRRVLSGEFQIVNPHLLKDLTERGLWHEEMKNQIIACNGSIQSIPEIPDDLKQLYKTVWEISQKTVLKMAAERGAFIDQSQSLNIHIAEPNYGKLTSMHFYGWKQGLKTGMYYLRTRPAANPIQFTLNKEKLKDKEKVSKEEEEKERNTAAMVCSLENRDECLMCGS
# [7] = target: T7, HeLa cell extract proteins (Homo sapiens, UniProt P52272)
# T7 construct: endogenous in cells; host or cells: HeLa cell extract
# T7 sequence (P52272 1-730): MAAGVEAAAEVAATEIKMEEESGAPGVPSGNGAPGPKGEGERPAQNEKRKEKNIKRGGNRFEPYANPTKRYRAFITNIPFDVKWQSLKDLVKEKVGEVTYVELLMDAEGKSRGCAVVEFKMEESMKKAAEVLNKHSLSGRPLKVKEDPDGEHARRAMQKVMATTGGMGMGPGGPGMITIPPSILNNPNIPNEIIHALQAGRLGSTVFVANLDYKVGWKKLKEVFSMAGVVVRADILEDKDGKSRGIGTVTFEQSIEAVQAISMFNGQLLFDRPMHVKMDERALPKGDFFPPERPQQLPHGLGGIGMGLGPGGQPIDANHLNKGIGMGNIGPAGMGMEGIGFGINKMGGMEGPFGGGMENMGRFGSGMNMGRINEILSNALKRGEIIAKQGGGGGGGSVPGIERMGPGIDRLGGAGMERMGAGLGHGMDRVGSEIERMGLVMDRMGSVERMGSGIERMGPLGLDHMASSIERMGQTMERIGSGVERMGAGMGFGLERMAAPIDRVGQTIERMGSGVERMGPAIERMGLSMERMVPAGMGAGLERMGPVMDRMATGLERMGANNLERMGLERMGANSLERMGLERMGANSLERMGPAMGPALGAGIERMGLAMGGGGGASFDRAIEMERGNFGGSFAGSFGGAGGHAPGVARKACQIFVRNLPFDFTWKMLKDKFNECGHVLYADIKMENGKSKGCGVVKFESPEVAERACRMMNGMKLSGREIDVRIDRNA
# [8] = target: T8, HeLa cell extract proteins (Homo sapiens, UniProt Q6UXN9)
# T8 construct: endogenous in cells; host or cells: HeLa cell extract
# [9] = target: T9, HeLa cell extract proteins (Homo sapiens, UniProt Q9H773)
# T9 construct: endogenous in cells; host or cells: HeLa cell extract
# T9 sequence (Q9H773 1-170): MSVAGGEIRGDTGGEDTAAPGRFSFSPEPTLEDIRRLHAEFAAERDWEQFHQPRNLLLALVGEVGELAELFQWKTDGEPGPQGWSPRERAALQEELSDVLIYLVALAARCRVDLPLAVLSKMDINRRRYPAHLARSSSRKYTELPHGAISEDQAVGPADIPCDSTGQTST
# [10] = HeLa, protein XTP3TPA (XTP3-TRAN[…] A PROTEIN)
# [11] = HeLa, protein HSP90AB1 (HEAT SHOCK PROTEIN HSP 90-BETA.)
# [12] = HeLa, protein S100A11 (PROTEIN S100-A11.)
# T1 sequence (P30153 whole entry): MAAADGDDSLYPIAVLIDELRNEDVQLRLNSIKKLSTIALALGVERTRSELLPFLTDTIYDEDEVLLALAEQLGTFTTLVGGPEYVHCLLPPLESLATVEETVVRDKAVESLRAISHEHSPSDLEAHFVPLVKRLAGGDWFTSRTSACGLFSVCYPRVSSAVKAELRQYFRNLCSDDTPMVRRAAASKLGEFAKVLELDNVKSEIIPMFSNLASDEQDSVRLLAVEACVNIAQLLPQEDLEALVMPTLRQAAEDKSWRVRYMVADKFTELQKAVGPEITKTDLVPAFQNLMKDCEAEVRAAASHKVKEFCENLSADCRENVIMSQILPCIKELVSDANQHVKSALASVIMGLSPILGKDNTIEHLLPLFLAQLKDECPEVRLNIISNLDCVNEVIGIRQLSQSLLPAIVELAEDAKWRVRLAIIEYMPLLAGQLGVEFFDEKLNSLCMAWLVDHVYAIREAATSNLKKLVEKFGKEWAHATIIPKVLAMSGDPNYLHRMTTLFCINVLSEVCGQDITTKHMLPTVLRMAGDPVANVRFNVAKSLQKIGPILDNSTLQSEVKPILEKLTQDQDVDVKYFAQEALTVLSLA
# T8 sequence (Q6UXN9 whole entry): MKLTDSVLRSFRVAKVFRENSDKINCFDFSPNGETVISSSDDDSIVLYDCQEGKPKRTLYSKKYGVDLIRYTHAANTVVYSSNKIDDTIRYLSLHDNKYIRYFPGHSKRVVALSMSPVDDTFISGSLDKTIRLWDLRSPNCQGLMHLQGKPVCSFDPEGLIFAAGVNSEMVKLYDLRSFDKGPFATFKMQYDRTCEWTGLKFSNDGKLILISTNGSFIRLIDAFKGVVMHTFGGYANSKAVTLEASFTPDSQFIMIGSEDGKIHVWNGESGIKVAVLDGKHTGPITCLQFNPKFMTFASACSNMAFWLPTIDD
# T2 sequence (P08238 whole entry): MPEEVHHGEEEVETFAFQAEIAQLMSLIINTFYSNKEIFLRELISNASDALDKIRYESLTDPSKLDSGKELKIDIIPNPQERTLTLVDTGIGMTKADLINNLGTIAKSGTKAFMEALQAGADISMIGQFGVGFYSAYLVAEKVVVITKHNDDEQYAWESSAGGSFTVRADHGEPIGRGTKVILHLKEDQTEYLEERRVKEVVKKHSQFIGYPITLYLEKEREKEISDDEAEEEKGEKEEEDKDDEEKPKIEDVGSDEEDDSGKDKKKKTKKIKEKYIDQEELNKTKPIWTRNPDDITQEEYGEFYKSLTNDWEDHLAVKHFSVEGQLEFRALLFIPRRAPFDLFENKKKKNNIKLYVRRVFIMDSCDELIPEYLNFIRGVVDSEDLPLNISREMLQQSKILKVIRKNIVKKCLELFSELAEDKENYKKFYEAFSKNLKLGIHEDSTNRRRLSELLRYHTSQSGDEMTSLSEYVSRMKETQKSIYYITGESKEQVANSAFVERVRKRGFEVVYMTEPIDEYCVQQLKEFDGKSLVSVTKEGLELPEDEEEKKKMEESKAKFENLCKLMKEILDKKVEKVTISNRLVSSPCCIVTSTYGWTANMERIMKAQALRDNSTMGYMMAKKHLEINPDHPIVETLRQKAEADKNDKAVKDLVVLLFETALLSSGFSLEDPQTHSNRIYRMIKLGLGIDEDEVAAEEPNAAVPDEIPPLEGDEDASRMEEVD
SMILES,"fold changes relative to vehicle control ([1]; HeLa, protein PPP2R1A)","fold changes relative to vehicle control ([2]; HeLa, protein HSP90AB1)","fold changes relative to vehicle control ([3]; HeLa, captured protein PSMG2)","fold changes relative to vehicle control ([4]; protein NQO2, HeLa)","fold changes relative to vehicle control ([5]; HeLa, protein S100A11)","fold changes relative to vehicle control ([6]; HeLa, protein RRM1)","fold changes relative to vehicle control ([7]; HeLa, captured protein HNRNPM)","fold changes relative to vehicle control ([8]; HeLa, captured protein WDR82)","fold changes relative to vehicle control [2, 11] [fold]","fold changes relative to vehicle control ([3]; protein PSMG2, HeLa)","fold changes relative to vehicle control ([4]; HeLa, protein NQO2)","fold changes relative to vehicle control [5, 12] [fold]","fold changes relative to vehicle control ([6]; protein RRM1, HeLa)","fold changes relative to vehicle control ([7]; HeLa, protein HNRNPM)","fold changes relative to vehicle control ([8]; captured protein WDR82, HeLa)","fold changes relative to vehicle control ([9]; captured protein XTP3TPA, HeLa)",also measured
"Nc1nc2c(c(=O)[nH]1)N(C=O)C(CNc1ccc(C(=O)N[C@@H](CCC(=O)O)C(=O)O)cc1)CN2 (stereo partly drawn) [LEU, leucovorin]",0.97,1.08,1.05,1.1,1.32,0.99,0.83,0.8,,,,,,,,,"fold changes relative to vehicle control [9, 10]: 1.14"
"Nc1nc2[nH]cc(CCc3ccc(C(=O)N[C@@H](CCC(=O)O)C(=O)O)cc3)c2c(=O)[nH]1 [PTX, pemetrexed]",,,,,,,,,,,,,,,,,fold changes relative to vehicle control [1]: 0.87; fold changes relative to vehicle control [2]: 1.14; fold changes relative to vehicle control [3]: 0.97; fold changes relative to vehicle control [4]: 0.16; fold changes relative to vehicle control [5]: 1.29; fold changes relative to vehicle control [6]: 1.05; fold changes relative to vehicle control [7]: 0.99; fold changes relative to vehicle control [8]: 0.72; fold changes relative to vehicle control [9]: 1.09
CCCCCCOc1ccc(Cc2cnc(N)nc2N)cc1 [compound 1],0.95,,,,,,,,1.5,1,0.91,1.66,1.05,1.09,0.75,0.91,
CCCCCCOc1cccc(Cc2cnc(N)nc2N)c1 [compound 2],0.95,,,,,,,,2.33,1.03,0.7,2.47,1.29,1.21,1.01,0.73,
Nc1nc2cccc(-c3ccccc3)c2n1Cc1ccc(Cl)c(Cl)c1 [compound 3],0.88,,,,,,,,1.06,0.87,0.99,1.08,0.89,0.88,0.9,1.14,
NCCOCCOCC(=O)Nc1nc2ncc(CNc3ccc(C(=O)NC(CCC(=O)O)C(=O)O)cc3)nc2c(=O)[nH]1 (stereo not drawn) [compound 6],0.86,1.36,1,0.72,1.59,1.06,1.01,0.89,,,,,,,,,"fold changes relative to vehicle control ([9]; HeLa, protein XTP3TPA (XTP3-TRANSACTIVATED GENE A PROTEIN)): 0.51"
NCCCNc1ccc(C(=O)NC(CCC(=O)O)C(=O)O)cc1 (stereo not drawn) [compound 7],0.95,0.98,0.98,1.04,1.2,0.96,1.02,0.97,,,,,,,,,"fold changes relative to vehicle control [9, 10]: 1.21"
